Data: US8309586B2, “Glucokinase activators and pharmaceutical compositions containing the same as an active ingredient” (LG Life Sciences Ltd., priority 2007, dated 2012)

Test system: Glucokinase known as hexokinase IV (human GK isoform 1, pancreas form and human GK isoform 2, liver form)
Experiment: Glucokinase enzymatic activity assay (G6PDH-coupled, NADH absorbance at 340 nm)
Type: biochemical
Details: 5 mM glucose, 1 mM ATP, 37 nM GK, 10 min at room temperature
Method in brief: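 His-tagged human GK isoform 1 (pancreas) or 2 (liver), E. coli-expressed and Ni-purified, 37 nM, with 5 mM glucose, 1 mM ATP, 1 mM NAD and G6PDH in 25 mM Hepes/KCl, 2 mM MgCl2, 1 mM DTT. Ran 10 min at room temperature, read as NADH at 340 nm. AC1.5 is the compound concentration giving 1.5-fold activity.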

SMILES	AC1.5 (the compound concentration at which the enzymatic activity is increased by 1.5 times)
CNC(=O)C[C@@H]1CSC(c2cc3cc(Cl)cc(NC4CCCC4)c3[nH]2)=N1 [Example 76, 2-[(R)-2-(5-chloro-7-cyclopentylamino-1H-indol-2-yl)-4,5-dihydro-thiazol-4-yl]-N-methyl-acetamide]	14 nM
COc1cc(NC2CCCC2)c2[nH]c(C3=N[C@H](CO)CS3)cc2c1 [Example 12, [(R)-2-(7-cyclopentylamino-5-methoxy-1H-indol-2-yl)-4,5-dihydro-thiazol-4-yl]-methanol]	25 nM
O=C(C[C@@H]1CSC(c2cc3cc(Cl)cc(NC4CCCC4)c3[nH]2)=N1)N1CCOCC1 [Example 73, 2-[(R)-2-(5-chloro-7-cyclopentylamino-1H-indol-2-yl)-4,5-dihydro-thiazol-4-yl]-1-morpholin-4-yl-ethanone]	25 nM
O=C(C[C@@H]1CSC(c2cc3cc(Cl)cc(NC4CCOCC4)c3[nH]2)=N1)N1CCOCC1 [Example 83, 2-{(R)-2-[5-chloro-7-(tetrahydro-pyran-4-ylamino)-1H-indol-2-yl]-4,5-dihydro-thiazol-4-yl}-1-morpholin-4-yl-ethanone]	45 nM
O=C(O)C[C@@H]1CSC(c2cc3cc(Cl)cc(NC4CCOCC4)c3[nH]2)=N1 [Example 31, {(R)-2-[5-chloro-7-(tetrahydro-pyran-4-ylamino)-1H-indol-2-yl]-4,5-dihydro-thiazol-4-yl}-acetic acid]	16 nM
O=C(C[C@@H]1CSC(c2cc3cc(Cl)cc(NC4CCCC4)c3[nH]2)=N1)N1CCCCC1 [Example 81, 2-[(R)-2-(5-chloro-7-cyclopentylamino-1H-indol-2-yl)-4,5-dihydro-thiazol-4-yl]-1-piperidin-1-yl-ethanone]	6 nM
CN(C)C(=O)C[C@@H]1CSC(c2cc3cc(Cl)cc(NC4CCCC4)c3[nH]2)=N1 [Example 77, 2-[(R)-2-(5-chloro-7-cyclopentylamino-1H-indol-2-yl)-4,5-dihydro-thiazol-4-yl]-N,N-dimethyl-acetamide]	27 nM
OC[C@@H]1CSC(c2cc3cc(Cc4cc[nH]c4)cc(NC4CCCC4)c3[nH]2)=N1 [Example 23, {(R)-2-[7-cyclopentylamino-5-(1H-pyrrol-3-ylmethyl)-1H-indol-2-yl]-4,5-dihydro-thiazol-4-yl}-methanol]	19 nM
OC[C@@H]1CSC(c2cc3cccc(NC4CCOC4)c3[nH]2)=N1 (stereo partly drawn) [Example 3, {(R)-2-[7-(tetrahydro-furan-3-ylamino)-1H-indol-2-yl]-4,5-dihydro-thiazol-4-yl}-methanol]	184 nM
OC[C@@H]1CSC(c2cc3cc(Oc4cccnc4)cc(NC4CCOCC4)c3[nH]2)=N1 [Example 14, {(R)-2-[5-(pyridin-3-yloxy)-7-(tetrahydro-pyran-4-ylamino)-1H-indol-2-yl]-4,5-dihydro-thiazol-4-yl}-methanol]	8 nM
CS(=O)(=O)N1CCC(Nc2cccc3cc(C4=N[C@H](CO)CS4)[nH]c23)C1 (stereo partly drawn) [Example 4, {(R)-2-[7-(1-methanesulfonyl-pyrrolidin-3-ylamino)-1H-indol-2-yl]-4,5-dihydro-thiazol-4-yl}-methanol]	217 nM
COC(=O)C[C@@H]1CSC(c2cc3cc(OC)cc(NC4CCCC4)c3[nH]2)=N1 [Example 47, [(R)-2-(7-cyclopentylamino-5-methoxy-1H-indol-2-yl)-4,5-dihydro-thiazol-4-yl]-acetic acid methyl ester]	27 nM
CS(=O)(=O)c1ccc(Oc2cc(NC3CCCC3)c3[nH]c(C4=N[C@H](CC(=O)O)CS4)cc3c2)cc1 [Example 64, {(R)-2-[7-cyclopentylamino-5-(4-methanesulfonyl-phenoxy)-1H-indol-2-yl]-4,5-dihydro-thiazol-4-yl}-acetic acid]	17 nM

Next, values leading:

AC1.5 (the compound concentration at which the enzymatic activity is increased by 1.5 times)	SMILES
29 nM	COc1cc(NC2CCCC2)c2[nH]c(C3=N[C@H](CCN4CCN(C(=O)CO)CC4)CS3)cc2c1 [Example 146, 1-(4-{2-[(R)-2-(7-cyclopentylamino-5-methoxy-1H-indol-2-yl)-4,5-dihydro-thiazol-4-yl]-ethyl}-piperazin-1-yl)-2-hydroxy-ethanone]
12 nM	CC(=O)N1CCN(CCC[C@@H]2CSC(c3cc4cc(Cl)cc(NC5CCCC5)c4[nH]3)=N2)CC1 [Example 155, 1-(4-{3-[(R)-2-(5-chloro-7-cyclopentylamino-1H-indol-2-yl)-4,5-dihydro-thiazol-4-yl]-propyl}-piperazin-1-yl)-ethanone]
62 nM	Clc1cc(NC2CCOCC2)c2[nH]c(C3=N[C@H](CCN4CCN(c5ncccn5)CC4)CS3)cc2c1 [Example 123, (5-chloro-2-{(R)-4-[2-(4-pyrimidin-2-yl-piperazin-1-yl)-ethyl]-4,5-dihydro-thiazol-2-yl}-1H-indol-7-yl)-(tetrahydro-pyran-4-yl)-amine]
23 nM	O=C(O)COC[C@@H]1CSC(c2cc3cc(F)cc(NC4CCCC4)c3[nH]2)=N1 [Example 171, [(R)-2-(7-cyclopentylamino-5-fluoro-1H-indol-2-yl)-4,5-dihydro-thiazol-4-ylmethoxy]-acetic acid]
16 nM	CN(C)C1CCN(CC[C@@H]2CSC(c3cc4cc(Cl)cc(NC5CCCC5)c4[nH]3)=N2)C1 (stereo partly drawn) [Example 103, (5-chloro-2-{(R)-4-[2-(3-dimethylamino-pyrrolidin-1-yl)-ethyl]-4,5-dihydro-thiazol-2-yl}-1H-indol-7-yl)-cyclopentyl-amine]
12 nM	CCOC(=O)COC[C@@H]1CSC(c2cc3cc(F)cc(NC4CCCC4)c3[nH]2)=N1 [Example 170, [(R)-2-(7-cyclopentylamino-5-fluoro-1H-indol-2-yl)-4,5-dihydro-thiazol-4-ylmethoxy]-acetic acid ethyl ester]
37 nM	CNC(=O)C[C@@H]1CSC(c2cc3cccc(NC4CCCC4)c3[nH]2)=N1 [Example 90, 2-[(R)-2-(7-cyclopentylamino-1H-indol-2-yl)-4,5-dihydro-thiazol-4-yl]-N-methyl-acetamide]
23 nM	CC(=O)N1CCN(CC[C@@H]2CSC(c3cc4cc(F)cc(NC5CCCC5)c4[nH]3)=N2)CC1 [Example 125, 1-(4-{2-[(R)-2-(7-cyclopentylamino-5-fluoro-1H-indol-2-yl)-4,5-dihydro-thiazol-4-yl]-ethyl}-piperazin-1-yl)-ethanone]
10 nM	OCCC[C@@H]1CSC(c2cc3cc(Cl)cc(NC4CCCC4)c3[nH]2)=N1 [Example 150, 3-[(R)-2-(5-chloro-7-cyclopentylamino-1H-indol-2-yl)-4,5-dihydro-thiazol-4-yl]-propan-1-ol]
26 nM	CCOC(=O)c1c(C)ncn1CC[C@@H]1CSC(c2cc3cc(Cl)cc(NC4CCCC4)c3[nH]2)=N1 [Example 109, 3-{2-[(R)-2-(5-chloro-7-cyclopentylamino-1H-indol-2-yl)-4,5-dihydro-thiazol-4-yl]-ethyl}-5-methyl-3H-imidazole-4-carboxylic acid ethyl ester]
27 nM	CN1CCN(C(=O)C[C@@H]2CSC(c3cc4cc(F)cc(NC5CCCC5)c4[nH]3)=N2)CC1 [Example 84, 2-[(R)-2-(7-cyclopentylamino-5-fluoro-1H-indol-2-yl)-4,5-dihydro-thiazol-4-yl]-1-(4-methyl-piperazin-1-yl)-ethanone]
71 nM	CC(=O)N1CCN(CC[C@@H]2CSC(c3cc4cccc(Oc5ccccc5)c4[nH]3)=N2)CC1 [Example 175, 1-(4-{2-[(R)-2-(7-phenoxy-1H-indol-2-yl)-4,5-dihydro-thiazol-4-yl]-ethyl}-piperazin-1-yl)-ethanone]
43 nM	CCOC(=O)CC[C@@H]1CSC(c2cc3cc(OCC)cc(NC4CCCC4)c3[nH]2)=N1 [Example 166, 3-[(R)-2-(7-cyclopentylamino-5-ethoxy-1H-indol-2-yl)-4,5-dihydro-thiazol-4-yl]-propionic acid ethyl ester]
11 nM	O=C1CCCN1CC[C@@H]1CSC(c2cc3cc(Cl)cc(NC4CCCC4)c3[nH]2)=N1 [Example 111, 1-{2-[(R)-2-(5-chloro-7-cyclopentylamino-1H-indol-2-yl)-4,5-dihydro-thiazol-4-yl]-ethyl}-pyrrolidin-2-one]
72 nM	O=C(C[C@@H]1CSC(c2cc3cccc(NC4CCCC4)c3[nH]2)=N1)N1CCOCC1 [Example 91, 2-[(R)-2-(7-cyclopentylamino-1H-indol-2-yl)-4,5-dihydro-thiazol-4-yl]-1-morpholin-4-yl-ethanone]
9 nM	O=C(O)CC[C@@H]1CSC(c2cc3cc(OC(F)(F)F)cc(NC4CCCC4)c3[nH]2)=N1 [Example 169, 3-[(R)-2-(7-cyclopentylamino-5-trifluoromethoxy-1H-indol-2-yl)-4,5-dihydro-thiazol-4-yl]-propionic acid]
